Bridges are numbered along the chain shown (N, C = ends). Where no end group is shown, it is not given here. [ ]: non-standard residue; d: D form. The star is where a group is joined. guanine PNA monomer = guanine peptide-nucleic acid (PNA) monomer, attached to a lysine side chain, NCCN(CC(=O)*)C(=O)Cn1cnc2c(=O)[nH]c(N)nc21; G‑GMONO = glycine-G PNA monomer on lysine; S5 = C=CCCC[C@](C)(N)C(=O)O

One data set concerns the target KRAS G12D (Homo sapiens, UniProt P01116, G12D). Description: mant-GTP loading of KRAS, G12D. The class given is biochemical. Conditions: for inhibition of mant-GTP loading: KRAS G12D oncogenic variant; for inhibition of nucleotide (mant-GTP) loading of KRAS: KRAS G12D per FIG. 20 legend. The text has this:
(§1) The negative control SAH-SOS B2 peptide had no effect (FIG. 11A-D).
Fluorescent GTP analog, mant-GTP, was used to assess the GTP loading propensity of KRAS protein.

The next data set has as its system Panc 10.05 cells. The conditions noted are these: confocal microscopy and lysate fluorescence scan.
In data set [1] the target is T1, KRAS wild type (Homo sapiens, UniProt P01116). Description: Fluorescence polarization binding assay, wild-type KRAS. The protocol: The affinity of the various peptides is detailed in FIG. 5.
Expression was induced by 1 mM IPTG for 4 hours at 30° C. Collected bacterial pellets were resuspended in lysis buffer (20 mM Tris, 250 mM NaCl, pH 7.6), lysed by microfluidization (Microfluidics M-110L), and centrifuged at 45,000 rpm for 1 h at 4° C. (Beckman L-90K). […] Concentrated eluates were subjected to size exclusion chromatography and the corresponding monomeric peaks were collected. Protein concentration was determined by Bradford assay (BioRad) and UV absorbance measurements.
FP assays were performed as previously described. Briefly, FITC-SAH-SOS peptides (e.g. 15 nM) were incubated with the indicated serial dilution of KRAS wild-type or mutant protein in binding buffer (50 mM Tris, 100 mM NaCl, pH 8.0) until equilibrium was reached. FP was measured using a SpectraMax M5 microplate reader (Molecular Devices). Dissociation constants (KD) were calculated by nonlinear regression analysis of dose-response curves using Prism software (GraphPad). Competition FP assays were performed by using K-RAS proteins (e.g. 250 nM), FITC-SAH-SOS peptides (e.g. 15 nM), and for competition assays, a serial dilution of N-terminal acetylated SAH-SOS peptides.
On the technique in general: In fluorescence polarisation assays a small probe gives low polarisation when free and higher when bound to something large.

The target of another data set is KRAS and SOS1 protein (Homo sapiens, UniProt P01116). Description: Disruption of the association between KRAS and SOS1 protein in vitro. The class given is biochemical.
Data set [2] concerns the target T1, KRAS wild type. The data set is described as follows: mant-GTP loading of KRAS, wild type. The class given is biochemical.
From the text: as §1

The test system of data set [3] is phospho-MEK1/2, phospho-ERK1/2, phospho-Akt, phospho-S6K, and phospho-myc in HeLa or Panc 10.05 cells. The data set is described as follows: Phospho-western blotting of downstream KRAS targets after EGF. Type of data set: cell-based. Conditions: 4 h peptide incubation, then Epidermal Growth Factor (EGF). The protocol:
(§2) We tested a diversity of cancer cells lines to evaluate their susceptibility to SAH-SOS peptide treatments. […] After 4 h incubation with the indicated peptides, HeLa (FIG. 15A) or Panc 10.05 (FIG. 15B) cells were treated with […] (EGF), an upstream KRAS activator, and, lysates were prepared, subjected to electrophoresis, and western blotted with the indicated phospho-specific antibodies. Cells treated with or without EGF, in the absence of added peptide, served as positive and negative controls, respectively.
HeLa cells (10^5/well) were plated overnight (12-well format) in high-glucose DMEM media supplemented with 10% FBS, antibiotics and L-Glutamine. After 24 hours, cells were treated with the indicated amounts of SAH-SOS peptides for 4 hours in serum-free DMEM, followed by the addition of EGF (50 ng/ml) ([…], Cell Signaling) for an additional 15 minute incubation. The cells were then lysed in buffer containing 0.5% NP-40, 50 mM Tris (pH 7.4), 150 mM NaCl, complete protease inhibitors and PhosphoOne phosphatase inhibitors (Roche), and collected lysates subjected to SDS-PAGE following by western blotting with anti-phospho-Erk1/2, phospho-S6K, phospho-myc (Cell Signaling), and actin (Sigma) antibodies.
Background: In western blotting, separated proteins are transferred to a membrane and probed.

Another data set has as its target wildtype KRAS (Homo sapiens, UniProt P01116). The data set is described as follows: Nucleotide (GTP) exchange assay with mant-GTP. The class given is biochemical. The conditions noted are these: mant-GTP loaded KRAS, excess unlabeled GTP (10x). The protocol:
KRAS was loaded with equimolar mant-GTP (a fluorescent GTP analog), and excess unlabeled GTP (10×) is then added to the reaction mixture. The observed decrease in fluorescence reflects the GTP turnover activity at the KRAS active site. SAH-SOS peptides reduce the GTP turnover activity, as reflected by a shift of the curves from the no peptide negative control toward the inhibited exchange (2 mM MgCl2) positive control (FIG. 10).
Nucleotide exchange assays were performed as an association-dissociation experiment in which mant-GTP first associates with K-Ras followed by a dissociation step in which excess unlabeled GTP outcompetes mant-GTP, thus decreasing the fluorescence, as previously described^5. A kinetic readout of fluorescence, corresponding to the dissociation step, was recorded on a Tecan X1000 fluorescence spectrometer (excitation 360 nm, emission 440 nm). The rate of nucleotide exchange was determined by fitting a single exponential function to the dissociation phase readout from the experiment (Prism software, GraphPad). Reactions were performed with the indicated amounts of SAH-SOS peptides in buffer containing 25 mM Tris (pH 7.5), 50 mM NaCl, 1 mM DTT with 2 μM wildtype KRAS, 2 μM mantGTP and 200 μM unlabeled GTP. 2 mM MgCl2 was added as a […] to inhibit mantGTP release.

The subject of data set [4] is lung, pancreatic, colon, and cervical cancer cell lines. The data set is described as follows: Susceptibility of a diversity of cancer cell lines. The class given is cell-based. Here is the method: as §2
(§3) The indicated cell lines (10^4/well) were plated overnight (96-well format) in high-glucose DMEM media supplemented with 10% FBS, antibiotics and L-Glutamine. Media was aspirated, and SAH-SOS peptides added at the indicated concentrations in serum-free DMEM. Cell viability was measured at 24 hours using the CellTiter-Glo assay (Invitrogen). The plotted data represent percent viability as normalized to untreated controls.

The subject of data set [5] is A549 (lung adenocarcinoma, KRAS G12S). Description: Cell viability, CellTiter-Glo, A549. The class given is cell-based. The conditions noted are these: A549, 24 hours. The protocol:
as §3
On the technique in general: ATP-based viability assays read luminescence as a measure of living cells.

Data set [6] deals with Myc promoter luciferase reporter in HeLa cells. Description: Myc promoter luciferase reporter assay. The class given is cell-based. The conditions noted are these: EGF stimulation, normalized to cell viability. Here is the method: HeLa cells transfected with a reporter construct containing luciferase under the control of the Myc promoter was treated with EGF and the indicated concentrations of SAH-SOS peptides (FIG. 16). The luciferase readout was normalized to cell viability and plotted as percent luciferase expression compared to baseline. […] No EGF treatment served as a negative control for the experiment.
HeLa cells (10^4/well) were plated overnight (96-well format) in high-glucose DMEM media supplemented with 10% FBS, antibiotics and L-Glutamine. After 24 hour incubation, cells were transfected with pBV-Luc/Del-6 plasmid that includes a luciferase reporter under c-myc promoter, using Lipofectamine 2000 (Invitrogen) according to the manufacturer's protocol. Twenty-four hours after transfection, the cells were treated with the indicated amounts of SAH-SOS peptides for 4 hours in serum-free media, and then. EGF (50 ng/ml) was added for an additional 4 hour incubation. CellTiter-Glo and luciferase (Invitrogen) kits were used to quantify cell viability and luciferase expression, respectively. Viability data was used to normalize luciferase expression.

Data set [7] deals with HCT116 (colorectal cancer, KRAS G13D). Description: Cell viability, CellTiter-Glo, HCT116. The conditions noted are these: HCT116, 24 hours. Type of data set: cell-based. Here is the method: SAH-SOSB2, which contains a staple position that interferes with the KRAS binding interface, served as a negative control for this experiment. Dose-dependent cytotoxic activity of guanine peptide-nucleic acid derivatives of SAH-SOSC2 was also observed in a series of pancreatic and lung cancer subtypes (FIG. 22).
as §3

Data set [8] concerns mouse embryonic fibroblasts. The conditions noted are these: 0.5 μM FITC-conjugated peptide, 4 hours.
Experimental: Negative controls include DMSO and an unmodified/unstructured peptide of the BIM BH3 domain. […] Microscopy was performed 4 hours after dosing cells with the corresponding FITC-conjugated peptides.
Briefly, wild-type MEFs were treated with 0.5 μM SAH-SOS peptide or the equivalent amount of control peptides (e.g. BIM BH3, BIM SAHBA) for 4 hours in serum-free DMEM, and then stained with Hoechst dye and CellMask Orange (Invitrogen) for 10 min. The media was aspirated, and cells fixed with 4% paraformaldehyde for 10 min, washed 3× with PBS and imaged using ImageXpress Microscopy (high-throughput epifluorescence microscope, Molecular Devices). The data were analyzed and quantified with MetaXpress software.
Data set [9] has as its system HeLa (cervical cancer, WT KRAS). Description: Cell viability, CellTiter-Glo, HeLa. The class given is cell-based. Conditions: 24 hours. The protocol:
as §3

In the case of `CC[C@H](C)[C@H](NC(=O)[C@]1(C)CCCC=CCCC[C@](C)(NC(=O)CNC(=O)[C@H](Cc2ccccc2)NC(=O)[C@H](Cc2ccccc2)NC(=O)[C@H](CCCNC(=N)N)NC(=O)[C@H](CCCNC(=N)N)NC(=O)CCNC(=S)Nc2ccc3c(c2)C(=O)OC32c3ccc(O)cc3Oc3cc(O)ccc32)C(=O)N[C@@H](Cc2ccc(O)cc2)C(=O)N[C@@H](CC(C)C)C(=O)N[C@@H]([C@@H](C)O)C(=O)N1)C(=O)N[C@@H](CC(C)C)C(=O)N[C@@H](CCCCN)C(=O)N[C@H](C(=O)N[C@@H](CCC(=O)O)C(=O)N[C@@H](CCC(=O)O)C(=O)NCC(=O)N[C@@H](CC(N)=O)C(N)=O)[C@@H](C)O` [SAH-SOSB2, RRFFGXYLTXILKTEEGN], the “inhibition of mant-GTP loading” value on KRAS G12D and at KRAS wild type [2] was “had no effect” throughout. In addition, the cellular uptake entry in the data set with Panc 10.05 cells is listed as “dose-dependent cellular uptake was observed”. At KRAS wild type [1], the “binding to KRAS, in words” value was “does not bind KRAS”. Besides, on KRAS and SOS1 protein, the “disruption of KRAS-SOS1 association” value is reported as “displayed no such activity”.

In the case of `CC[C@H](C)[C@H](NC(=O)CNC(=O)[C@H](Cc1ccccc1)NC(=O)[C@H](Cc1ccccc1)NC(=O)[C@H](CCCNC(=N)N)NC(=O)[C@H](CCCNC(=N)N)NC(=O)CCNC(=S)Nc1ccc2c(c1)C(=O)OC21c2ccc(O)cc2Oc2cc(O)ccc21)C(=O)N[C@@]1(C)CCCC=CCCC[C@@](C)(C(=O)N[C@@H](CC(C)C)C(=O)N[C@@H](CCCCN)C(=O)N[C@H](C(=O)N[C@@H](CCC(=O)O)C(=O)N[C@@H](CCC(=O)O)C(=O)NCC(=O)N[C@@H](CC(N)=O)C(N)=O)[C@@H](C)O)NC(=O)[C@H](CC(N)=O)NC(=O)[C@H]([C@@H](C)O)NC(=O)[C@H](CC(C)C)NC1=O` [SAH-SOSC2, RRFFGIXLTNXLKTEEGN], the “phosphorylation of downstream KRAS targets” value in [3] is reported as “dose-responsively inhibited phosphorylation”. Further, the “inhibition of mant-GTP loading” value against KRAS G12D and against KRAS wild type [2] was “dose-responsively inhibited mant-GTP loading” throughout. On wildtype KRAS, the “GTP exchange activity of KRAS” value is reported as “reduce the GTP exchange activity of KRAS in vitro in a dose-responsive manner”. Further, the cellular uptake result with Panc 10.05 cells was “dose-dependent cellular uptake was observed”; in data set [8] it was “cellular uptake”. Besides, the “anti-tumor activity in cancer cell lines” value in data set [4] is listed as “demonstrated anti-tumor activity”. In addition, the cell viability result in data set [5], in data set [7] and in data set [9] was “impairs the viability” in each case. Moreover, in [6], the myc-driven luciferase expression entry is reported as “specifically inhibited myc-driven luciferase expression”. Moreover, the “binding to KRAS, in words” value on KRAS wild type [1] is “among the highest affinity”. Also, the “disruption of KRAS-SOS1 association” value at KRAS and SOS1 protein was “disrupted the association between KRAS and SOS1 protein”.

Regarding “RRFFGIXLTNXLRTEK(G-GMONO)GN (RRFFGI[S5]LTN[S5]LRTEK(G‑GMONO)GN; staple 7-11) [SAH-SOS(G-Gmono), SAH-SOSC2 derivative with glycine-conjugated G-monomer on a lysine side chain]”, in the data set with KRAS G12D, the “inhibition of nucleotide (mant-GTP) loading of KRAS” value is on record as “effectively inhibited nucleotide loading”.

With “RRFFGIXLTNXLRTEKGN (RRFFGI[S5]LTN[S5]LRTEK(guanine PNA monomer)GN; staple 7-11) [SAH-SOS(Gmono), SAH-SOSC2 derivative with guanine peptide-nucleic acid monomer (Gmono) on a lysine side chain]”, the “inhibition of nucleotide (mant-GTP) loading of KRAS” value in the data set with KRAS G12D was “effectively inhibited nucleotide loading”.

The record behind these values is patent US10087215B2, “Stabilized SOS1 peptides” (DANA-FARBER CANCER INSTITUTE, INC., priority 2013, dated 2018).
